In patent US8822503B2, “2-pyridone compounds” (Taisho Pharmaceutical Co., Ltd, priority 2009, dated 2014) one finds EC50 data, which are given here for 38 molecules.

One may read the EC50 as the concentration needed to bring the measured effect to its halfway point.

In this assay the target is T1, human liver GK (Homo sapiens, UniProt P35557).
T1 construct: GST (glutathione S-transferase) (N); made in house; host or cells: E. coli
T1 sequence (P35557 1-466 isoform P35557-2): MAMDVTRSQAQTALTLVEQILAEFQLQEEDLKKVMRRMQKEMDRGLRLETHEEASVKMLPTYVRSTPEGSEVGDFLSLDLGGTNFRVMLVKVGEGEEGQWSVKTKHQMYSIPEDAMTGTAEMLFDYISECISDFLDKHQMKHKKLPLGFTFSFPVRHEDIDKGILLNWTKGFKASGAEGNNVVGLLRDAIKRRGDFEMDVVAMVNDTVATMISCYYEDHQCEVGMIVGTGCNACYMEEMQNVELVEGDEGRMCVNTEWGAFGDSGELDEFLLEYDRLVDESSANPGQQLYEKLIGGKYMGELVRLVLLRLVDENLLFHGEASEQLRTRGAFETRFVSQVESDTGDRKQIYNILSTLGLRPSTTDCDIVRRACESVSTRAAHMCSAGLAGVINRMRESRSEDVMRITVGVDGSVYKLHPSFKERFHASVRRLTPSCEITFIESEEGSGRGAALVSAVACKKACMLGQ
The assay can be described thus: GK activation test. As to conditions: test compound concentration needed to activate 50% of maximum activation ability; 4 mM 14C-labeled glucose, 2 mM ATP, room temperature, 20 minutes. It is filed as biochemical. Summed up:
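GST-tagged human liver GK from E. coli (0.24 μg/well) with 4 mM 14C-glucose, 2 mM ATP in Hepes-KOH pH 7.1, KCl, MgCl2, DTT, 1% DMSO, 20 min room temperature. Labeled glucose 6-phosphate captured on anion resin, eluted and counted. EC50 = concentration giving half of maximal activation.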

Regarding `O=C1CC[C@H](CC(c2ccc(C3CC3)c(=O)[nH]2)c2ccc(C(F)(F)F)cc2F)N1` (single isomer, unassigned) [Example 4-333], the EC50 was 3000 to 10000 nM.

As for `O=C1CC[C@H](CC(c2ccc(C3CC3)c(=O)[nH]2)c2ccc(Cl)cc2F)N1` (single isomer, unassigned) [Example 4-334], the EC50 lay within 500 to 3000 nM.

`O=C1CC[C@H](CC(c2ccc(C3CC3)c(=O)[nH]2)c2ccc(Cl)cc2F)N1` (single isomer, unassigned) [Example 4-335] gave an EC50 of 3000 to 10000 nM.

The molecule `CCc1ccc(C(C[C@H]2CCC(=O)N2)c2ccc(C3CC3)c(=O)[nH]2)cc1Cl` (single isomer, unassigned) [Example 4-336] displayed an EC50 of 10 to 500 nM.

As to `CCc1ccc(C(C[C@H]2CCC(=O)N2)c2ccc(C3CC3)c(=O)[nH]2)cc1Cl` (single isomer, unassigned) [Example 4-337], the EC50 was 500 to 3000 nM.

`COCCCc1ccc(C(C[C@H]2CCC(=O)N2)c2ccc(Cl)c(=O)[nH]2)cc1` (single isomer, unassigned) [Example 4-338] yielded an EC50 of 500 to 3000 nM.

With `O=C1CCC(CC(c2ccc(C(F)F)cc2)c2ccc(C3CC3)c(=O)[nH]2)N1` (single isomer, unassigned) [Example 4-340, 3-Cyclopropyl-6-[1-[4-(difluoromethyl)phenyl]-2-(5-oxopyrrolidin-2-yl)ethyl]pyridin-2(1H)-one], the EC50 is 500 to 3000 nM.

In turn, `O=C1CCC(CC(c2ccc(C(F)F)cc2)c2ccc(C3CC3)c(=O)[nH]2)N1` (single isomer, unassigned) [Example 4-341, 3-Cyclopropyl-6-[1-[4-(difluoromethyl)phenyl]-2-(5-oxopyrrolidin-2-yl)ethyl]pyridin-2(1H)-one] registered an EC50 of 3000 to 10000 nM.

`O=C1CC[C@H](CC(c2ccc(S(=O)(=O)C3CC3)c(Cl)c2)c2ccc(C3CC3)c(=O)[nH]2)N1` (single isomer, unassigned) [Example 4-342]: the EC50 lay within 10 to 500 nM.

For `O=C1CC[C@H](CC(c2ccc(S(=O)(=O)C3CC3)c(Cl)c2)c2ccc(C3CC3)c(=O)[nH]2)N1` (single isomer, unassigned) [Example 4-343], the EC50 is 3000 to 10000 nM.

The molecule `O=C1CC[C@H](CC(c2ccc(OC3CC3)c(Cl)c2)c2ccc(C3CC3)c(=O)[nH]2)N1` (single isomer, unassigned) [Example 4-344] came in with an EC50 of 10 to 500 nM.

The molecule `O=C1CC[C@H](CC(c2ccc(OC3CC3)c(Cl)c2)c2ccc(C3CC3)c(=O)[nH]2)N1` (single isomer, unassigned) [Example 4-345] yielded an EC50 of 3000 to 10000 nM.

For the molecule `COc1cc(F)c(C(C[C@H]2CCC(=O)N2)c2ccc(C3CC3)c(=O)[nH]2)cc1Cl` (single isomer, unassigned) [Example 4-346], the EC50 was 10 to 500 nM.

Consider `COc1cc(F)c(C(C[C@H]2CCC(=O)N2)c2ccc(C3CC3)c(=O)[nH]2)cc1Cl` (single isomer, unassigned) [Example 4-347], for which the EC50 lay within 3000 to 10000 nM.

`CC(C)Oc1ccc(C(C[C@H]2CCC(=O)N2)c2ccc(C3CC3)c(=O)[nH]2)cc1` (single isomer, unassigned) [Example 4-348] registered an EC50 of 500 to 3000 nM.

The molecule `CC(C)Oc1ccc(C(C[C@H]2CCC(=O)N2)c2ccc(C3CC3)c(=O)[nH]2)cc1F` (single isomer, unassigned) [Example 4-350] returned an EC50 of 10 to 500 nM.

`CCCOc1ccc(C(C[C@H]2CCC(=O)N2)c2ccc(C3CC3)c(=O)[nH]2)cc1` (single isomer, unassigned) [Example 4-352] displayed an EC50 of 500 to 3000 nM.

`CCOc1ccc(C(C[C@H]2CCC(=O)N2)c2ccc(C3CC3)c(=O)[nH]2)cc1F` (single isomer, unassigned) [Example 4-354] registered an EC50 of 500 to 3000 nM.

Turning to `O=C1CC[C@H](CC(c2ccc(OC(F)F)c(Cl)c2)c2ccc(C3CC3)c(=O)[nH]2)N1` (single isomer, unassigned) [Example 4-356], the EC50 lay in the range of 10 to 500 nM.

Take `O=C1CC[C@H](CC(c2ccc(OC(F)F)c(Cl)c2)c2ccc(C3CC3)c(=O)[nH]2)N1` (single isomer, unassigned) [Example 4-357]: the EC50 lay within 3000 to 10000 nM.

`CC(C)(C)c1ccc(C(CCN2CCOC2=O)c2ccc(Cl)c(=O)[nH]2)cc1` (single isomer, unassigned) [Example 6-29, 6-[1-(4-tert-Butylphenyl)-3-(2-oxo-1,3-oxazolidin-3-yl)propyl]-3-chloropyridin-2(1H)-one] showed an EC50 of 500 to 3000 nM.

Turning to `CSc1ccc(/C(=C\C2CCCC2)c2ccc(Cl)c(=O)[nH]2)cc1` [Example 1-1, 3-Chloro-6-{(E)-2-Cyclopentyl-1-[4-(methylsulfanyl)phenyl]ethenyl}pyridin-2(1H)-one], the EC50 was in the range of 500 to 3000 nM.

Consider `CS(=O)(=O)c1ccc(/C(=C\C2CCCC2)c2ccc(Cl)c(=O)[nH]2)cc1` [Example 1-2, 3-Chloro-6-{(E)-2-Cyclopentyl-1-[4-(methylsulfonyl)phenyl]ethenyl}pyridin-2(1H)-one], for which the EC50 fell in the range of 500 to 3000 nM.

As to `CSc1ccc(/C(=C\C2CCCC2)c2ccc(C(C)C)c(=O)[nH]2)cc1` [Example 1-3, 6-{(E)-2-Cyclopentyl-1-[4-(methylsulfanyl)phenyl]ethenyl}-3-(propan-2-yl)pyridin-2(1H)-one], the EC50 is 10 to 500 nM.

For `CC(C)c1ccc(/C(=C/C2CCCC2)c2ccc(S(C)(=O)=O)cc2)[nH]c1=O` [Example 1-4, 6-{(E)-2-Cyclopentyl-1-[4-(methylsulfonyl)phenyl]ethenyl}-3-(propan-2-yl)pyridin-2(1H)-one], the EC50 lay in the range of 10 to 500 nM.

Take `CSc1ccc(/C(=C\C2CCCC2)c2ccc(C3CC3)c(=O)[nH]2)cc1` [Example 1-5, 6-{(E)-2-Cyclopentyl-1-[4-(methylsulfanyl)phenyl]ethenyl}-3-cyclopropylpyridin-2(1H)-one]: the EC50 was in the range of 10 to 500 nM.

The molecule `CS(=O)(=O)c1ccc(/C(=C\C2CCCC2)c2ccc(C3CC3)c(=O)[nH]2)cc1` [Example 1-6, 6-{(E)-2-Cyclopentyl-1-[4-(methylsulfonyl)phenyl]ethenyl}-3-cyclopropylpyridin-2(1H)-one] showed an EC50 of 10 to 500 nM.

In turn, `CSc1ccc(/C(=C\C2CCCC2)c2ccc(C)c(=O)[nH]2)cc1` [Example 1-7, 6-{(E)-2-Cyclopentyl-1-[4-(methylsulfanyl)phenyl]ethenyl}-3-methylpyridin-2(1H)-one] returned an EC50 of 10 to 500 nM.

`Cc1ccc(/C(=C/C2CCCC2)c2ccc(S(C)(=O)=O)cc2)[nH]c1=O` [Example 1-8, 6-{(E)-2-Cyclopentyl-1-[4-(methylsulfonyl)phenyl]ethenyl}-3-methylpyridin-2(1H)-one]: the EC50 lay within 500 to 3000 nM.

Regarding `CCSc1ccc(/C(=C\C2CCCC2)c2ccc(C)c(=O)[nH]2)cc1` [Example 1-9, 6-{(E)-2-Cyclopentyl-1-[4-(ethylsulfanyl)phenyl]ethenyl}-3-methylpyridin-2(1H)-one], the EC50 was in the range of 10 to 500 nM.

In turn, `CCS(=O)(=O)c1ccc(/C(=C\C2CCCC2)c2ccc(C)c(=O)[nH]2)cc1` [Example 1-10, 6-{(E)-2-Cyclopentyl-1-[4-(ethylsulfonyl)phenyl]ethenyl}-3-methylpyridin-2(1H)-one] came in with an EC50 of 10 to 500 nM.

`Cc1ccc(/C(=C/C2CCCC2)c2ccc(S(=O)(=O)C3CC3)cc2)[nH]c1=O` [Example 1-11, 6-{(E)-2-Cyclopentyl-1-[4-(cyclopropylsulfonyl)phenyl]ethenyl}-3-methylpyridin-2(1H)-one] had an EC50 of 10 to 500 nM.

For `CCc1ccc(/C(=C/C2CCCC2)c2ccc(SCCCO)cc2)[nH]c1=O` [Example 1-12, 6-[(E)-2-Cyclopentyl-1-{4-[(3-hydroxypropyl)sulfanyl]phenyl}ethenyl]-3-ethylpyridin-2(1H)-one], the EC50 was in the range of 10 to 500 nM.

In turn, `CCc1ccc(/C(=C/C2CCCC2)c2ccc(S(=O)(=O)CCCO)cc2)[nH]c1=O` [Example 1-13, 6-[(E)-2-Cyclopentyl-1-{4-[(3-hydroxypropyl)sulfonyl]phenyl}ethenyl]-3-ethylpyridin-2(1H)-one] gave an EC50 of 10 to 500 nM.

Regarding `Cc1ccc(/C(=C/C2CCCC2)c2ccc(S(=O)(=O)N(C)C)cc2)[nH]c1=O` [Example 1-14, 4-[(E)-2-Cyclopentyl-1-(5-methyl-6-oxo-1,6-dihydropyridin-2-yl)ethenyl]-N,N-dimethylbenzenesulfonamide], the EC50 fell in the range of 10 to 500 nM.

Take `Cc1ccc(/C(=C/C2CCCC2)c2ccc(S(=O)(=O)N(C)CCO)cc2)[nH]c1=O` [Example 1-15, 4-[(E)-2-Cyclopentyl-1-(5-methyl-6-oxo-1,6-dihydropyridin-2-yl)ethenyl]-N-(2-hydroxyethyl)-N-methylbenzenesulfonamide]: the EC50 lay within 10 to 500 nM.

Consider `CCc1ccc(/C(=C/C2CCCC2)c2ccc(OC)c(Cl)c2)[nH]c1=O` [Example 1-16, 6-[(E)-1-(3-Chloro-4-methoxyphenyl)-2-cyclopentylethenyl]-3-ethylpyridin-2(1H)-one], for which the EC50 is 10 to 500 nM.

For `CCOc1ccc(/C(=C\C2CCCC2)c2ccc(CC)c(=O)[nH]2)cc1Cl` [Example 1-17, 6-[(E)-1-(3-Chloro-4-ethoxyphenyl)-2-cyclopentylethenyl]-3-ethylpyridin-2(1H)-one], the EC50 lay in the range of 10 to 500 nM.
